Measurements taken from patent US20190388421A1, “NOVEL COMPOUNDS AND PHARMACEUTICAL COMPOSITIONS THEREOF FOR THE TREATMENT OF FIBROSIS” (Galapagos NV, priority 2016, published 2019).

Tests used:
S1PR2 = target: T1, S1PR2 (Homo sapiens, UniProt O95136); experiment: GTP-γS binding assay ([35S]GTPγS, S1P at EC80, S1PR2 membranes); format: biochemical; conditions: membranes from stable cell line over expressing S1PR2, read-out: S1PR2 EC
T1 construct: expressed in transfected cells
Outline: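 Compounds tested against S1P at its EC80 on membranes (2.5 μg/well) from a stable S1PR2-overexpressing line, pre-incubated with 1 μM GDP 15 min at 4 °C. Buffer: 20 mM Tris pH 7.5, 10 mM MgCl2, 100 mM NaCl, 0.1% fatty-acid-free BSA, 50 ug/ml saponin. Incubated 4 h at room temperature; [35S]GTPγS binding read by WGA SPA beads.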

HFL-1 cells [1] = experiment: IL8 assay (S1P induced IL-8 production); format: cell-based; conditions: Homo sapiens, HFL1; S1P (1 μM) induced IL-8, HFL-1 cells, without HSA
Procedure: (§1) S1P is able to induce cytokines such as IL-8 in a process that is S1PR2 dependent (O'Sullivan et al, 2014; Bruennert et al, 2015). This assay is designed to test inhibitory activity of compounds on S1P induced IL-8 on HFL-1 cells, a human fetal lung fibroblast cell line.
Human Fetal Lung cells (HFL-1) are seeded in 96 well plates in growth medium (F12K+10% heat inactivated FBS+1% Pen/strep). After overnight incubation at 37° C., 5% CO2 cells are refreshed with starvation medium without HSA (F12K+1% FBS+1% Pen/strep). On day three, compounds are added (10 point serial dilution, 30 μM highest concentration, ⅓ dilution, 0.3% DMSO final) and plates are incubated for one hour at 37° C., 5% CO2. Subsequently S1P at 1 μM final concentration is added and plates are incubated for 16 to 24 hours at 37° C., 5% CO2 after which the supernatant was collected. IL-8 levels in the supernatant are determined with the IL-8 ELISA of R&D systems.

[2] = target: T2, human GPCR sphingosine 1-phosphate receptor 1 (S1PR1) (Homo sapiens, UniProt P21453); experiment: S1PR1 selectivity assay (Ca2+ flux, antagonist); format: cell-based; conditions: S1P1 antagonist EC50, CHO cells overexpressing human S1PR1 and Gq protein
T2 construct: host or cells: CHO
T2 sequence (P21453 whole entry): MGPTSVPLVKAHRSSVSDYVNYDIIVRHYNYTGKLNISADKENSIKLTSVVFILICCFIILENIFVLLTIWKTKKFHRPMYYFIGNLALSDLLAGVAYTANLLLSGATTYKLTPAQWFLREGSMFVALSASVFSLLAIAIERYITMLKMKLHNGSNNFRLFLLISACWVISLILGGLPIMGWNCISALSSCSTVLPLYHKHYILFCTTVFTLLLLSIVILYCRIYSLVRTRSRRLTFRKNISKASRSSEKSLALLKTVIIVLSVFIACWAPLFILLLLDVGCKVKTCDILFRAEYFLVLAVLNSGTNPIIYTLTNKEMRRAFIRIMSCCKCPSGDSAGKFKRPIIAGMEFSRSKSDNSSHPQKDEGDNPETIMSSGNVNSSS
Outline: (§2)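 CHO cells stably overexpressing human S1PR1 or S1PR5 with Gq were preincubated with compound 15 min at 37 °C, then stimulated with S1P at EC80 (S1PR1) or an S1PR5-specific agonist (S1PR5). Ca2+ fluorescence was read for 3 min; 10-point 1/3 dilutions from 20 μM final, normalized to vehicle and EC80 trigger, gave EC50.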

HFL-1 cells [3] = experiment: IL8 assay in the presence of Human Serum Albumin; format: cell-based; conditions: HFL1, S1P (5 μM) induced IL-8, HFL-1 cells, with 2% HSA, read-out: HSA IL8 EC50
Procedure: as §1
To evaluate the influence of plasma protein binding of Sip as well as compound, the S1P induced IL-8 levels were evaluated in presence of 2% Human Serum Albumin (HSA, equivalent to 40% human serum). By adding 2% HSA, which affects both the activity of the compounds as well as the S1P potency, the physiological condition are reproduced and the shift in potency expected under in vivo serum conditions can be measured.
Human Fetal Lung cells (HFL-1) are seeded in 96 well plates in growth medium (F12K+10% heat inactivated FBS+1% Pen/strep). After overnight incubation at 37° C., 5% CO2 cells are refreshed with starvation medium with HSA (F12K+1% FBS+1% Pen/strep+1.95% HSA). On day three, compounds are added (10 point serial dilution, 30 μM highest concentration, 1/3 dilution, 0.3% DMSO final) and plates are incubated for 1 h at 37° C., 5% CO2. Subsequently S1P at 5 μM final concentration is added and plates are incubated for 16 to 24 h at 37° C., 5% CO2 after which the supernatant was collected. IL-8 levels in the supernatant are determined with the IL-8 ELISA of R&D systems.

[4] = target: T3, human GPCR sphingosine 1-phosphate receptor 5 (S1PR5) (Homo sapiens, UniProt Q9H228); experiment: S1PR5 selectivity assay (Ca2+ flux, antagonist, S1PR5 specific agonist trigger); format: cell-based; conditions: S1P5 antagonist EC50, CHO cells overexpressing human S1PR5 and Gq protein
T3 construct: host or cells: CHO
T3 sequence (Q9H228 whole entry): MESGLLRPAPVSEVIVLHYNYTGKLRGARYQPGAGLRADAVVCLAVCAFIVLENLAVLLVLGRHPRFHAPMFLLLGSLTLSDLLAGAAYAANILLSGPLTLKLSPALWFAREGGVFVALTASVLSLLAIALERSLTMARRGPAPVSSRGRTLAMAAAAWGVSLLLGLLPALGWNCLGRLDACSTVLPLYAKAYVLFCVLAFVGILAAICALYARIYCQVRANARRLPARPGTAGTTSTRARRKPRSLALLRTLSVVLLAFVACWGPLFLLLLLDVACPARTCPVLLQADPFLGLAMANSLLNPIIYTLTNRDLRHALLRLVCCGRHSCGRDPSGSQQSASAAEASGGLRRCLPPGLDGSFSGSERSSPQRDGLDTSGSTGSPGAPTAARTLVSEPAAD
Outline: as §2

[5] = target: T4, human GPCR sphingosine 1-phosphate receptor 2 (S1PR2) (Homo sapiens, UniProt O95136); experiment: S1P2 antagonist assay (Ca2+ flux, S1P at EC80); format: cell-based; conditions: CHO-S1PR2 cells, highest concentration 20 μM
T4 construct: host or cells: CHO
T4 sequence (O95136 whole entry): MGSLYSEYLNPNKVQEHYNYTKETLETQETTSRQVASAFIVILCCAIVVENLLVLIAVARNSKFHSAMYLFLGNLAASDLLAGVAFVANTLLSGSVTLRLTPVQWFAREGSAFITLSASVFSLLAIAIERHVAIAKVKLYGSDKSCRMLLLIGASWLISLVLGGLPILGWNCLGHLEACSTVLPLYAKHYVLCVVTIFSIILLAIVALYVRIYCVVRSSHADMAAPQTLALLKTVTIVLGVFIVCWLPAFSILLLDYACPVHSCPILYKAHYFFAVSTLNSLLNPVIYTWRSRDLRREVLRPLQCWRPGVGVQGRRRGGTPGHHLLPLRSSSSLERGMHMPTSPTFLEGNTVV
Outline: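 CHO cells stably overexpressing human S1PR2, serum-starved 1 h and loaded with Fluo8 dye, were read for 3 min after compound addition, then stimulated with S1P at EC80 after 15 min at 37 °C. Top concentration 20 μM in a 10-point 1/3 series; Ca2+ fluorescence ratio normalized to vehicle and S1P EC80, giving EC50.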

T1 sequence (O95136 whole entry): as above

| EC50 (S1PR2) [nM] | EC50 (HFL-1 cells [1]) [nM] | EC50 [2] [nM] | IC50 (HFL-1 cells [3]) [nM] | EC50 [4] [nM] | EC50 [5] [nM] | Compound |
| --- | --- | --- | --- | --- | --- | --- |
| 151 | 11.6 | 2480 | 278 | 4580 | 15.3 | CCOc1cc(NC(=O)NCc2cc(C)c(-c3cn(C)nc3C3CC3)nn2)cc(C(F)(F)F)n1 [Compound 54, 1-[[6-(3-cyclopropyl-1-methyl-pyrazol-4-yl)-5-methyl-pyridazin-3-yl]methyl]-3-[2-ethoxy-6-(trifluoromethyl)-4-pyridyl]urea] |
| 338 | 35.8 | ≥ 19800 | 179 | 6610 | 16.9 | CCOc1cc(NC(=O)NCc2cc(C)c(-c3cn(CC4COCCO4)nc3C(F)(F)F)nn2)cc(C(F)(F)F)n1 (stereo not drawn) [Compound 55, 1-[[6-[1-(1,4-dioxan-2-ylmethyl)-3-(trifluoromethyl)pyrazol-4-yl]-5-methyl-pyridazin-3-yl]methyl]-3-[2-ethoxy-6-(trifluoromethyl)-4-pyridyl]urea] |
| 24.4 | 0.9 | 6610 | 17.3 | 4620 | 7.6 | CCOc1nc(C#N)cc(NC(=O)NCc2cc(C)c(-c3cn(C)nc3C(F)(F)F)nn2)c1C [Compound 57, 1-(6-cyano-2-ethoxy-3-methyl-4-pyridyl)-3-[[5-methyl-6-[1-methyl-3-(trifluoromethyl)pyrazol-4-yl]pyridazin-3-yl]methyl]urea] |
| 38.5 | 0.9 | 6610 | 116 | 5500 | 7.2 | Cc1cc(CNC(=O)Nc2cc(C#N)nc(OCC(F)F)c2C)nnc1-c1cn(C)nc1C(F)(F)F [Compound 59, 1-(6-cyano-2-(2,2-difluoroethoxy)-3-methyl-4-pyridyl]-3-[[5-methyl-6-[1-methyl-3-(trifluoromethyl)pyrazol-4-yl]pyridazin-3-yl]methyl]urea] |
| 1520 | 166 | 2800 | 4340 | 6610 | 3280 | Cn1cc(-c2nnc(CNC(=O)Nc3cc(Cl)nc(OCC(F)F)c3)cc2N2CC(F)(F)C2)c(C(F)(F)F)n1 [Compound 60, 1-[2-chloro-6-(2,2-difluoroethoxy)-4-pyridyl]-3-[[5-(3,3-difluoroazetidin-1-yl)-6-[1-methyl-3-(trifluoromethyl)pyrazol-4-yl]pyridazin-3-yl]methyl]urea] |

The next lines start with the compound.

| Compound | EC50 (S1PR2) [nM] | EC50 (HFL-1 cells [1]) [nM] | EC50 [2] [nM] | IC50 (HFL-1 cells [3]) [nM] | EC50 [4] [nM] | EC50 [5] [nM] |
| --- | --- | --- | --- | --- | --- | --- |
| Cc1cc(CNC(=O)Nc2cc(OCC3(C(F)(F)F)CC3)nc(C(F)(F)F)c2)nnc1-c1cn(C)nc1C(F)(F)F [Compound 39, 1-[[5-methyl-6-[1-methyl-3-(trifluoromethyl)pyrazol-4-yl]pyridazin-3-yl]methyl]-3-[2-(trifluoromethyl)-6-[[1-(trifluoromethyl)cyclopropyl]methoxy]-4-pyridyl]urea] | 1040 | 122 | 6610 | 9950 | 6610 | 219 |
| Cc1cc(CNC(=O)Nc2cc(OC3CCOCC3)nc(C(F)(F)F)c2)nnc1-c1cn(C)nc1C(F)(F)F [Compound 40, 1-[[5-methyl-6-[1-methyl-3-(trifluoromethyl)pyrazol-4-yl]pyridazin-3-yl]methyl]-3-[2-tetrahydropyran-4-yloxy-6-(trifluoromethyl)-4-pyridyl]urea] | 1080 | 142 | 5150 | 3860 | 6610 | 291 |
| COCC(C)Oc1cc(NC(=O)NCc2cc(C)c(-c3cn(C)nc3C(F)(F)F)nn2)cc(C(F)(F)F)n1 (stereo not drawn) [Compound 41, 1-[2-(2-methoxy-1-methyl-ethoxy)-6-(trifluoromethyl)-4-pyridyl]-3-[[5-methyl-6-[1-methyl-3-(trifluoromethyl)pyrazol-4-yl]pyridazin-3-yl]methyl]urea] | 542 | 48.9 | ≥ 19800 | 597 | ≥ 19800 | 101 |
| CCOc1nc(C(F)(F)F)cc(NC(=O)NC(C)c2cc(C)c(-c3cn(C)nc3C(F)(F)F)nn2)c1C (stereo not drawn) [Compound 45, 1-[2-ethoxy-3-methyl-6-(trifluoromethyl)-4-pyridyl]-3-[1-[5-methyl-6-[1-methyl-3-(trifluoromethyl)pyrazol-4-yl]pyridazin-3-yl]ethyl]urea] | 211 | 41.1 | ≥ 19800 | 84.2 | 6610 | 19.7 |
| CCOc1nc(C(F)(F)F)cc(NC(=O)NCc2cc(C)c(-c3cn(C)nc3C(F)(F)F)nn2)c1CC [Compound 46, 1-[2-ethoxy-3-ethyl-6-(trifluoromethyl)-4-pyridyl]-3-[[5-methyl-6-[1-methyl-3-(trifluoromethyl)pyrazol-4-yl]pyridazin-3-yl]methyl]urea] | 97 | 25.6 | 6610 | 9950 | 6610 | 17.2 |
| Cc1cc(CNC(=O)Nc2cc(N3CC(F)(F)C3)nc(C(F)(F)F)c2)nnc1-c1cn(C)nc1C(F)(F)F [Compound 47] | 34.5 | 4.6 | 6610 | 42.4 | ≥ 19800 | 9.3 |
| Cc1cc(CNC(=O)Nc2cc(OCC(F)F)nc(N3CC(F)(F)C3)c2)nnc1-c1cn(C)nc1C(F)(F)F [Compound 48, 1-[2-(3,3-difluoroazetidin-1-yl)-6-(2,2-difluoroethoxy)-4-pyridyl]-3-[[5-methyl-6-[1-methyl-3-(trifluoromethyl)pyrazol-4-yl]pyridazin-3-yl]methyl]urea] | 154 | 23.9 | 5100 | 104 | ≥ 19800 | 27.1 |
| Cc1cc(CNC(=O)Nc2cc(Cl)nc(OCC(F)F)c2C)nnc1-c1cn(C)nc1C(F)(F)F [Compound 50, 1-[6-chloro-2-(2,2-difluoroethoxy)-3-methyl-4-pyridyl]-3-[[5-methyl-6-[1-methyl-3-(trifluoromethyl)pyrazol-4-yl]pyridazin-3-yl]methyl]urea] | 24.1 | 1.5 | 5920 | 74 | 3650 | 8 |
| CCOc1cc(NC(=O)NCc2cc(C)c(-c3cn(C4CCOC4)nc3C(F)(F)F)nn2)cc(C(F)(F)F)n1 (stereo not drawn) [Compound 52, 1-[2-ethoxy-6-(trifluoromethyl)-4-pyridyl)-3-[[5-methyl-6-[1-tetrahydrofuran-3-yl-3-(trifluoromethyl)pyrazol-4-yl]pyridazin-3-yl]methyl]urea] | 70.2 | 7.8 | 5890 | 79.3 | 6620 | 11.4 |
| CCOc1cc(NC(=O)NCc2cc(C)c(-c3cn(CCOC)nc3C(F)(F)F)nn2)cc(C(F)(F)F)n1 [Compound 53, 1-[2-ethoxy-6-(trifluoromethyl)-4-pyridyl]-3-[[6-[1-(2-methoxyethyl)-3-(trifluoromethyl)pyrazol-4-yl]-5-methyl-pyridazin-3-yl]methyl]urea] | 52.4 | 6.6 | 4020 | 51.2 | 6610 | 10 |
